# Results taken from patent US8247211B2, “Glycopeptide antibiotics” (American Cyanamid Company, priority 2001, dated 2012).
# Experiments:
# Test in all cases: In vitro antibacterial evaluation: minimum inhibitory concentration (MIC), broth dilution method
# Type in all cases: cell-based
# Conditions in all cases: 18 hours at 35° C.
# [1] = system: Escherichia coli
# Procedure: (§1) The minimum inhibitory concentration (MIC), the lowest concentration of the antibiotic which inhibits growth of the test organism, is determined by the broth dilution method using Muller-Hinton II […] (Baltimore Biological Laboratories) following the recommendations of the National Committee for Clinical Laboratory Standards [Methods for dilution antimicrobial susceptibility tests for bacteria that grow aerobically, approved standard M7-A2, National Committee for Clinical Laboratory Standards, Villanova, Pa].
# (§2) An inoculum level of 5×10^5 CFU/mL, and a range of antibiotic concentrations (64-0.06 μg/mL) is used. […] The test organisms include a spectrum of Gram-positive bacteria comprised of Staphylococcus sp., Streptococcus sp. and Enterococcus sp. These organisms include recent clinical isolates that are resistant to methicillin, penicillin and/or vancomycin.
# [2] = system: Staphylococcus sp.
# Procedure: as §1, §2
# [3] = system: Enterococcus sp.
# Procedure: as §1, §2
# [4] = system: Streptococcus sp.
# Procedure: as §1, §2
# [5] = Enterococcus faecalis (ATCC 29212)
# [6] = Enterococcus faecalis (GC 2242)
# [7] = Enterococcus faecalis (GC 2691)
# [8] = Enterococcus faecalis (GC 3059)
# [9] = Enterococcus faecalis (GC 4552)
# [10] = Enterococcus faecalis (GC 4553)
# [11] = Enterococcus faecalis (GC 4554)
# [12] = Enterococcus faecalis (GC 6189)
# [13] = broth dilution, inoculum 5×10^5 CFU/mL
# [14] = Streptococcus agalactiae (GC 4564)
# [15] = Streptococcus pneumoniae (ATCC 6301)
# [16] = Streptococcus pneumoniae (GC 1894)
# [17] = Streptococcus pneumoniae (GC 4565)
# [18] = Streptococcus pyogenes (GC 4563)
structure (smiles),measurement,setting,value
"COc1ccc(COCC2OC(OC3C(CO)OC(Oc4ccc(CC5NC(=O)C(C(C)c6ccccc6)NC(=O)CNC(=O)C(CO)NC(=O)C(C(O)C6CNC(=N)N6C6OC(CO)C(O)C(O)C6O)NC(=O)C(C(O)C6CNC(=N)N6)NC5=O)cc4)C(O)C3O)C(O)C(O)C2O)cc1 (stereo not drawn) [Example 232, Cyclo[glycyl-β-methylphenylalanyl-O-[4-O-[6-O-(4-methoxybenzyl)hexopyranosyl]hexopyranosyl]tyrosyl-3-(2-iminoimidazolidin-4-yl)seryl-3-(3-hexopyranosyl-2-iminoimidazolidin-4-yl)serylseryl]]",MIC Escherichia coli (ATCC 25922),[1],>64 µg/mL
same,MIC Escherichia coli (GC 4559),[1],64 µg/mL
same,MIC Escherichia coli (GC 4560),[1],2 µg/mL
same,MIC Coagulase Negative Staphylococcus (GC 4547),[2],2 µg/mL
same,MIC Coagulase Negative Staphylococcus (GC 4548),[2],2 µg/mL
same,MIC Coagulase Negative Staphylococcus (GC 4549),[2],1 µg/mL
same,MIC Coagulase Negative Staphylococcus (GC 4551),[2],4 µg/mL
same,MIC Coagulase Negative Staphylococcus (GC 6257),[2],2 µg/mL
same,MIC Staphylococcus aureus (ATCC 29213),[2],4 µg/mL
same,MIC Staphylococcus aureus (GC 1131),[2],4 µg/mL
same,MIC Staphylococcus aureus (GC 3051),[2],4 µg/mL
same,MIC Staphylococcus aureus (GC 3053),[2],8 µg/mL
same,MIC Staphylococcus aureus (GC 4541),[2],4 µg/mL
same,MIC Staphylococcus aureus (GC 4542),[2],4 µg/mL
same,MIC Staphylococcus aureus (GC 4544),[2],4 µg/mL
same,MIC Staphylococcus aureus (GC 4545),[2],4 µg/mL
same,MIC Staphylococcus aureus-SMITH (GC 4543),[2],4 µg/mL
same,MIC Staphylococcus haemolyticus (GC 4546),[2],2 µg/mL
same,MIC Enterococcus avium (GC 4558),[3]; Enterococcus avium (GC 4558),32 µg/mL
same,MIC Enterococcus faecalis (ATCC 29212),[3]; [5],32 µg/mL
same,MIC Enterococcus faecalis (GC 2242),[3]; [6],16 µg/mL
same,MIC Enterococcus faecalis (GC 2691),[3]; [7],32 µg/mL
same,MIC Enterococcus faecalis (GC 3059),[3]; [8],32 µg/mL
same,MIC Enterococcus faecalis (GC 4552),[3]; [9],32 µg/mL
same,MIC Enterococcus faecalis (GC 4553),[3]; [10],32 µg/mL
same,MIC Enterococcus faecalis (GC 4554),[3]; [11],32 µg/mL
same,MIC Enterococcus faecalis (GC 6189),[3]; [12],64 µg/mL
same,MIC Enterococcus faecium (GC 2243),[3]; Enterococcus faecium (GC 2243),16 µg/mL
same,MIC Enterococcus faecium (GC 4556),[3]; Enterococcus faecium (GC 4556),32 µg/mL
same,MIC Enterococcus faecium (GC 4557),[3]; Enterococcus faecium (GC 4557),4 µg/mL
same,MIC Enterococcus avium (GC 4558),[3]; [13],32 µg/mL
same,MIC Enterococcus faecalis (ATCC 29212),[3]; [13],32 µg/mL
same,MIC Enterococcus faecalis (GC 2242),[3]; [13],16 µg/mL
same,MIC Enterococcus faecalis (GC 2691),[3]; [13],32 µg/mL
same,MIC Enterococcus faecalis (GC 3059),[3]; [13],32 µg/mL
same,MIC Enterococcus faecalis (GC 4552),[3]; [13],32 µg/mL
same,MIC Enterococcus faecalis (GC 4553),[3]; [13],32 µg/mL
same,MIC Enterococcus faecalis (GC 4554),[3]; [13],32 µg/mL
same,MIC Enterococcus faecalis (GC 6189),[3]; [13],64 µg/mL
same,MIC Enterococcus faecium (GC 2243),[3]; [13],16 µg/mL
same,MIC Enterococcus faecium (GC 4556),[3]; [13],32 µg/mL
same,MIC Enterococcus faecium (GC 4557),[3]; [13],4 µg/mL
same,MIC Streptococcus agalactiae (GC 4564),[4]; [14],2 µg/mL
same,MIC Streptococcus pneumoniae (ATCC 6301),[4]; [15],0.5 µg/mL
same,MIC Streptococcus pneumoniae (GC 1894),[4]; [16],0.5 µg/mL
same,MIC Streptococcus pneumoniae (GC 4565),[4]; [17],1 µg/mL
same,MIC Streptococcus pyogenes (GC 4563),[4]; [18],2 µg/mL
same,MIC Streptococcus agalactiae (GC 4564),[4]; [13],2 µg/mL
same,MIC Streptococcus pneumoniae (ATCC 6301),[4]; [13],0.5 µg/mL
same,MIC Streptococcus pneumoniae (GC 1894),[4]; [13],0.5 µg/mL
same,MIC Streptococcus pneumoniae (GC 4565),[4]; [13],1 µg/mL
same,MIC Streptococcus pyogenes (GC 4563),[4]; [13],2 µg/mL
CC(c1ccccc1)C1NC(=O)CNC(=O)C(CO)NC(=O)C(CC2CNC(=N)N2C2OC(CO)C(O)C(O)C2O)NC(=O)C(CC2CNC(=N)N2)NC(=O)C(Cc2ccc(OC3OC(CO)C(OC4OC(CO)C(OCc5ccc(OCc6ccccc6)cc5)C(O)C4O)C(O)C3O)cc2)NC1=O (centres unmarked) [Example 246a],MIC Escherichia coli (ATCC 25922),[1],16 µg/mL
same,MIC Escherichia coli (GC 4559),[1],16 µg/mL
same,MIC Escherichia coli (GC 4560),[1],2 µg/mL
same,MIC Coagulase Negative Staphylococcus (GC 4547),[2],1 µg/mL
same,MIC Coagulase Negative Staphylococcus (GC 4548),[2],1 µg/mL
same,MIC Coagulase Negative Staphylococcus (GC 4549),[2],1 µg/mL
same,MIC Coagulase Negative Staphylococcus (GC 4551),[2],2 µg/mL
same,MIC Coagulase Negative Staphylococcus (GC 6257),[2],2 µg/mL
same,MIC Staphylococcus aureus (ATCC 29213),[2],2 µg/mL
same,MIC Staphylococcus aureus (GC 1131),[2],4 µg/mL
same,MIC Staphylococcus aureus (GC 3051),[2],1 µg/mL
same,MIC Staphylococcus aureus (GC 3053),[2],2 µg/mL
same,MIC Staphylococcus aureus (GC 4541),[2],1 µg/mL
same,MIC Staphylococcus aureus (GC 4542),[2],1 µg/mL
same,MIC Staphylococcus aureus (GC 4544),[2],2 µg/mL
same,MIC Staphylococcus aureus (GC 4545),[2],2 µg/mL
same,MIC Staphylococcus aureus-SMITH (GC 4543),[2],1 µg/mL
same,MIC Staphylococcus haemolyticus (GC 4546),[2],1 µg/mL
same,MIC Enterococcus avium (GC 4558),[3]; Enterococcus avium (GC 4558),2 µg/mL
same,MIC Enterococcus faecalis (ATCC 29212),[3]; [5],4 µg/mL
same,MIC Enterococcus faecalis (GC 2242),[3]; [6],4 µg/mL
same,MIC Enterococcus faecalis (GC 2691),[3]; [7],8 µg/mL
same,MIC Enterococcus faecalis (GC 3059),[3]; [8],4 µg/mL
same,MIC Enterococcus faecalis (GC 4552),[3]; [9],4 µg/mL
same,MIC Enterococcus faecalis (GC 4553),[3]; [10],2 µg/mL
same,MIC Enterococcus faecalis (GC 4554),[3]; [11],4 µg/mL
same,MIC Enterococcus faecalis (GC 6189),[3]; [12],4 µg/mL
same,MIC Enterococcus faecium (GC 2243),[3]; Enterococcus faecium (GC 2243),4 µg/mL
same,MIC Enterococcus faecium (GC 4556),[3]; Enterococcus faecium (GC 4556),4 µg/mL
same,MIC Enterococcus faecium (GC 4557),[3]; Enterococcus faecium (GC 4557),2 µg/mL
same,MIC Enterococcus faecalis (GC 2242),[3]; [13],4 µg/mL
same,MIC Enterococcus faecalis (GC 2691),[3]; [13],8 µg/mL
same,MIC Enterococcus faecalis (GC 3059),[3]; [13],4 µg/mL
same,MIC Streptococcus agalactiae (GC 4564),[4]; [14],0.5 µg/mL
same,MIC Streptococcus pneumoniae (ATCC 6301),[4]; [15],0.25 µg/mL
same,MIC Streptococcus pneumoniae (GC 1894),[4]; [16],<0.12 µg/mL
same,MIC Streptococcus pneumoniae (GC 4565),[4]; [17],0.25 µg/mL
same,MIC Streptococcus pyogenes (GC 4563),[4]; [18],0.5 µg/mL
same,MIC Streptococcus agalactiae (GC 4564),[4]; [13],0.5 µg/mL
same,MIC Streptococcus pneumoniae (ATCC 6301),[4]; [13],0.25 µg/mL
same,MIC Streptococcus pneumoniae (GC 1894),[4]; [13],<0.12 µg/mL
same,MIC Streptococcus pneumoniae (GC 4565),[4]; [13],0.25 µg/mL
same,MIC Streptococcus pyogenes (GC 4563),[4]; [13],0.5 µg/mL
